Patent US10947196B2, “Beta adrenergic agonist and methods of using the same” (CURASEN THERAPEUTICS, INC., priority 2019, dated 2021)
Where two headings read alike, the source gives them in different places.

Legend:
Type in all cases: cell-based
β1-adrenergic receptor = β1-adrenergic receptor (Homo sapiens (Human), UniProt P08588); test: cAMP Gs dynamic HTRF assay, β1 expressing CHO cells; settings: B1-AR
Outline: (§1)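 Intracellular cAMP quantified by Eu-donor/d2-acceptor HTRF after 30 min compound exposure at 37° C in stimulation buffer with IBMX. Concentrations ran 10 μM top, 5-fold steps, 10 points. Cell lines: 1321N1 astrocytoma and CHO expressing β1 or β2; EC50 via four-parameter fit, relative efficacy against isoproterenol.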

β2 adrenergic receptor = β2 adrenergic receptor (Homo sapiens (Human), UniProt P07550); test: cAMP Gs dynamic HTRF assay, β2 expressing CHO cells; settings: B2-AR
Outline: as §1

[1] = biological target: β2 adrenergic receptors in human astrocytoma cells (1321N1) (Homo sapiens (Human), UniProt P07550); test: cAMP HTRF assay in human astrocytoma cells (1321N1); settings: Endogenous receptor; 1321N1 cells; read-out: Average pEC50 [Receptor subtype: Endogenous; Cell type: 1321N1] (converted)
Outline: as §1

B3-AR = B3-AR (Homo sapiens (Human), UniProt P13945); test: cAMP potency assay, B3-AR expressing CHO-K1 cells; settings: read-out: Average pEC50 [Receptor subtype: B3-AR, Cell type: CHO-K1] (converted)
[2] = CHO-K1 (HitHunter), read-out: Average pEC50 [Receptor subtype: B1-AR, Cell type: CHO-K1 (HitHunter)] (converted)
[3] = CHO-K cells, read-out: Average EC50 [Receptor subtype: B1-AR, Cell type: CHO-K]
[4] = CHO-K1 (HitHunter), read-out: Average pEC50 [Receptor subtype: B2-AR, Cell type: CHO-K1 (HitHunter)] (converted)
[5] = CHO-K cells, read-out: Average EC50 [Receptor subtype: B2-AR, Cell type: CHO-K]

B3-AR, sequence (P13945 whole entry, species assumed): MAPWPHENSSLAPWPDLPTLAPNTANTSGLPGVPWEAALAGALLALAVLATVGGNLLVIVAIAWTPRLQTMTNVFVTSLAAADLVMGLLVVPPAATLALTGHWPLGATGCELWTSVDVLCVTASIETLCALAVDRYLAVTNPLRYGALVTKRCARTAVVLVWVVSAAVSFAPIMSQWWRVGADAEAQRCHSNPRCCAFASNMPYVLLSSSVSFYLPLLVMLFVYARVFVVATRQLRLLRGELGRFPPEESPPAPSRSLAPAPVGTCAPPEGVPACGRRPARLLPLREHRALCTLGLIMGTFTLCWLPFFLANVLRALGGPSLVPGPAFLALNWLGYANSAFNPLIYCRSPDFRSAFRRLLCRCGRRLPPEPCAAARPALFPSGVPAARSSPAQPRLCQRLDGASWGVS
β1-adrenergic receptor, sequence (P08588 whole entry, species assumed): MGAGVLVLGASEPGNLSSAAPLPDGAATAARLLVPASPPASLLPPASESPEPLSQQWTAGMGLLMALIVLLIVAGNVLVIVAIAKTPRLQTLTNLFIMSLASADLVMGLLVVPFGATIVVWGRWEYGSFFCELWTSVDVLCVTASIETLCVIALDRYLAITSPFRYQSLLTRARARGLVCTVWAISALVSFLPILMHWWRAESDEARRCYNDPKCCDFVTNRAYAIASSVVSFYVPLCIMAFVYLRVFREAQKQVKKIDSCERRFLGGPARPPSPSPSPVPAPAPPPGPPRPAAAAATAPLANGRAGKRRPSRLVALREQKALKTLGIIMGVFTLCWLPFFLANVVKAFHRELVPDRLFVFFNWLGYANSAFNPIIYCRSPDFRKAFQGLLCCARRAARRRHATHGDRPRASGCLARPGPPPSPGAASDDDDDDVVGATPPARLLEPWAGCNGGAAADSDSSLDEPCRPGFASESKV
β2 adrenergic receptor, sequence (P07550 whole entry, species assumed): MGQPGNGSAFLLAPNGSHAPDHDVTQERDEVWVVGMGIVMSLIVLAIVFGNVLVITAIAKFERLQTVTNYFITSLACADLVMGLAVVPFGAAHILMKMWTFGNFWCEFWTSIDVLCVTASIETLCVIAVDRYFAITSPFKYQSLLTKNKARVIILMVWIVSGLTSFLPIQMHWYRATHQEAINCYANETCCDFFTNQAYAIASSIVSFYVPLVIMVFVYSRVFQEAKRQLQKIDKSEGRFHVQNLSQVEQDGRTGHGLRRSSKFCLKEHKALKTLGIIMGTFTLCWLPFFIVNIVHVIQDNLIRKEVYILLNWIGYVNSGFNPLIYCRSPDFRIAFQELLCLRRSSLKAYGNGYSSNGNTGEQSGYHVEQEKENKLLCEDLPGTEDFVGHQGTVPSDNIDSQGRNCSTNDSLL
β2 adrenergic receptors in human astrocytoma cells (1321N1), sequence (P07550 whole entry): as the sequence (P07550 whole entry, species assumed) above

Question: How did the EC50 (β1-adrenergic receptor; [2]) turn out when CCOc1cccc([C@@H](O)CNC(C)(C)C)n1 [Compound 03-177] was run?
Answer: 10 to 100 nM

Question: What about the EC50 (β1-adrenergic receptor; [3]) of the same compound?
Answer: 10 to 100 nM

Question: What about the EC50 (β2 adrenergic receptor; [4]) of the same compound?
Answer: < 10 nM

Question: What about the EC50 (β2 adrenergic receptor; [5]) of the same compound?
Answer: < 10 nM

Question: And the EC50 [1]?
Answer: < 10 nM

Question: What about the EC50 (B3-AR) of the same compound?
Answer: 100 to 1000 nM

Question: Which results are given for CC(C)Oc1cccc([C@@H](O)CNC(C)(C)C)n1 [Compound 03-179]?
Answer: Average pEC50 [Receptor subtype: B1-AR; Cell type: CHO-K1 (HitHunter)] (β1-adrenergic receptor; CHO-K1 (HitHunter)): C (C = <7-6); EC50 (β1-adrenergic receptor; [3]): 100 to 1000 nM; EC50 (β2 adrenergic receptor; [4]): < 10 nM; EC50 (β2 adrenergic receptor; [5]): < 10 nM; EC50 [1]: < 10 nM; EC50 (B3-AR): 100 to 1000 nM

Question: What does the source list for COc1ccc(CC(C)(C)NC[C@H](O)c2cccc(C(F)(F)F)n2)cc1 [Compound 03-182]?
Answer: EC50 (β1-adrenergic receptor; [2]): 10 to 100 nM; EC50 (β1-adrenergic receptor; [3]): 10 to 100 nM; EC50 (β2 adrenergic receptor; [4]): < 10 nM; EC50 (β2 adrenergic receptor; [5]): < 10 nM; EC50 [1]: < 10 nM; EC50 (B3-AR): 100 to 1000 nM

Question: What does the source list for CC(C)(COc1ccccc1)NC[C@H](O)c1cccc(C(F)(F)F)n1 [Compound 03-184]?
Answer: Average pEC50 [Receptor subtype: B1-AR; Cell type: CHO-K1 (HitHunter)] (β1-adrenergic receptor; CHO-K1 (HitHunter)): B (B = 8-7); EC50 (β1-adrenergic receptor; [3]): 10 to 100 nM; EC50 (β2 adrenergic receptor; [4]): 10 to 100 nM; EC50 (β2 adrenergic receptor; [5]): 10 to 100 nM; EC50 [1]: 10 to 100 nM; EC50 (B3-AR): 100 to 1000 nM

Question: What does the source list for CC(C)(C)NCC(O)c1cncc(Cl)n1 (stereo not shown) [Compound 03-219]?
Answer: EC50 (β1-adrenergic receptor; [2]): 100 to 1000 nM; EC50 (β2 adrenergic receptor; [4]): 100 to 1000 nM; EC50 [1]: > 1000 nM; EC50 (B3-AR): 100 to 1000 nM
